{
  "source": "patent US20080274121A1",
  "about": "“Inhibition of Angiogenesis by Mithramycin” (priority 2007, published 2008)",
  "key": {"BxPC3 cells [1]": {"system": "BxPC3 cells", "assay": "BxPC3 subcutaneous xenograft, tumor volume and body weight", "type": "in vivo, nude mice", "source_text": "FIG. 10. Dose-dependent antitumor effects of BVZ and MIT in xenograft models of human pancreatic cancer. […] C and D, the control mice and mice that received (C) BVZ and (D) MIT were weighed at the time of experiment termination, and the weights were expressed as the mean±SD.\nFIG. 11. Synergistic antitumor effects of treatment with BVZ and MIT in xenograft models of human pancreatic cancer. […] C, representative tumor sizes in each group of BxPC3 model mice.\nTo determine whether this takes place, we treated pancreatic cancer in nude mice with BVZ, MIT, or a combination of the two (B+M). Specifically, we first performed dose-response experiments. We injected BxPC3 cells subcutaneously into nude mice.\nNext, we performed experiments using both BxPC3 and PANC-1 tumor cell models in which we administered PBS, BVZ (25 μg), MIT (0.10 mg/kg), or B+M to a group of nude mice."}, "PANC-1 cells": {"system": "PANC-1 cells", "assay": "Viable cell count in vitro, PANC-1", "type": "cell-based, human", "conditions": "100 μg/ml BVZ", "protocol": "(§1) FIG. 14. Effects of treatment with BVZ and MIT on the growth of and gene expression in human pancreatic cancer cells in vitro. (A) BxPC3 and (B) PANC-1 cells were incubated for 1 to 5 days in a medium alone or a medium containing 100 μg/ml BVZ. The viable cells were counted every 24 hours. C, PANC-1 cells were incubated for 6 to 48 hours in a medium alone or a medium containing 100 μg/ml BVZ. Total protein lysates were harvested from the cell cultures, and the level of Sp1, EGFR, and VEGF protein expression was determined using Western blot analysis. Equal protein-sample loading was monitored by probing the same membrane filter with an anti-glyceraldehyde-3-phosphate dehydrogenase antibody (GAPDH). D and E, PANC-1 cells were treated with MIT at concentrations ranging from 0.1 to 1.2 μM for 24 and 48 hours. (D) Cytotoxicity was assessed using the MTT assay, and (E) the level of gene expression was determined using Western blot analysis. NS, nonspecific.\n(§2) Effects of treatment with BVZ and MIT on the growth of and gene expression in human pancreatic cancer cells. To further determine whether treatment with BVZ directly impacts gene expression in pancreatic cancer cells, we incubated PANC-1 and BxPC3 cells in a medium alone or a medium containing 100 μg/ml BVZ for 6 to 48 hours."}, "BxPC3 cells [2]": {"system": "BxPC3 cells", "assay": "Viable cell count in vitro, BxPC3", "type": "cell-based, human", "conditions": "100 μg/ml BVZ", "protocol": "as §1, §2"}, "[3]": {"system": "Sp1 recruitment into the Sp1 promoter", "assay": "ChIP assay, PANC-1 cells in vitro", "type": "cell-based, human", "conditions": "100 μg/ml BVZ or 0.1 μM MIT, 2 days", "protocol": "FIG. 15. Effects of treatment with BVZ and MIT on Sp1 recruitment into the Sp1 promoter in human pancreatic cancer cells in vitro and in vivo. A, schematic structures of the minimal Sp1 promoters. The nucleotide positions and sequences of Sp1-binding sites and polymerase chain reaction forward and reverse primers flanking those sites for ChIP assay are shown. B, Sp1 and VEGF promoter reporter constructs were transfected into PANC-1 cells in triplicate and incubated for 12 hours. The cells were then incubated for another 24 hours in a medium alone or a medium containing 100 μg/ml BVZ or 0.1 μM MIT. Total protein lysates were harvested from the cell cultures for measurement of Sp1 and VEGF promoter activity using a luciferase assay kit. The relative Sp1 and VEGF promoter activities were assessed, and the activity in treated groups was expressed as the fold change of that in their respective control groups. C and D, chromatin was extracted from (C) PANC-1 cells that were incubated in vitro for 2 days in a medium alone or a medium containing 100 μg/ml BVZ or 0.1 μM MIT and (D) tumors formed by PANC-1 cells in nude mice that received treatment as described in FIG. 2A. […]"}, "BON-1 cells": {"system": "BON-1 cells", "assay": "Viable cell count in vitro, BON-1", "type": "cell-based, human", "conditions": "0 to 100 μg/ml BVZ, 5 days", "protocol": "FIG. 18. Effects of treatment with BVZ and MIT on the growth of and gene expression in human carcinoid cells in vitro. A. H727 and BON-1 cells were incubated for 5 days in a medium alone or a medium containing 25 to 100 μg/ml BVZ. The viable cells were counted. B. H727 cells were incubated for 5 days in a medium alone or a medium containing 100 μg/ml BVZ. Total protein lysates were harvested from the cell cultures, and the level of Sp1 and VEGF protein expression was determined using Western blot analysis. Equal protein-sample loading was monitored by probing the same membrane filter with an anti-GAPDH. C. H727 and BON-1 cells were treated with MIT at concentrations ranging from 0.1 to 2.5 μM for 24 hours. Cytotoxicity was assessed using the MTT assay.\nEffects of treatment with BVZ and MIT on the growth of and gene expression in human LGNET cells. To further determine whether treatment with BVZ directly impacts gene expression in LGNET cells, we incubated H727 and BON-1 cells in a medium alone or a medium containing 0 to 100 μg/ml BVZ for 5 days."}},
  "note": "“Also recorded” adds a separate entry of the source.",
  "data": [
    {"substance": "bevacizumab [BVZ]", "values": [
      {"measurement": "antitumor activity at low dose", "setting": "BxPC3 cells [1]; BVZ 25 μg, MIT 0.10 mg/kg, or B+M", "value": "slight antitumor effects; also recorded: marginal antitumor activity"},
      {"measurement": "antitumor activity, dose-response", "setting": "BxPC3 cells [1]; BVZ 25, 50, 100 μg, MIT 0.1, 0.2, 0.4 mg/kg, i.p. twice a week", "value": "suppressed human pancreatic cancer growth"},
      {"measurement": "body weight", "setting": "BxPC3 cells [1]; BVZ alone, 25-100 μg", "value": "no discernable effect on body weight"},
      {"measurement": "cell growth in vitro", "setting": "PANC-1 cells", "value": "did not affect the growth"},
      {"measurement": "cell growth in vitro", "setting": "BxPC3 cells [2]", "value": "did not affect the growth"},
      {"measurement": "Sp1 recruitment to its own promoter", "setting": "[3]", "value": "did not affect Sp1 recruitment"},
      {"measurement": "cell growth in vitro", "setting": "BON-1 cells", "value": "did not affect the growth"}
    ]}
  ]
}
